Experimental data as given in the NIST ThermoML archive (doi:10.1021/je050519g).

Experiments:
[1] = 293.15 K; for surface tension liquid-gas: Pendant drop shape; for mass density: 101.33 kPa, Liquid
[2] = xn = mol fraction of the nth substance listed; details: 293.15 K; for surface tension liquid-gas: Pendant drop shape; for mass density: 101 kPa, Liquid

CO [methanol]
[1]
Details	mass density [kg/m3]	surface tension liquid-gas [mN/m]
–	787.83	22.78

CC#N [acetonitrile] + CO
[2]
Details	mass density [kg/m3]	surface tension liquid-gas [mN/m]
x1 = 0.1001	788.46	23.8
x1 = 0.2011	788.04	24.73
x1 = 0.2996	787.13	25.53
x1 = 0.4997	784.82	26.85
x1 = 0.7012	782.13	27.94
x1 = 0.8009	780.75	28.42
x1 = 0.8956	779.47	28.85

CCCCO [butan-1-ol]
[1]
Details	mass density [kg/m3]	surface tension liquid-gas [mN/m]
–	807.33	24.5

CCO [ethanol]
[1]
Details	mass density [kg/m3]	surface tension liquid-gas [mN/m]
–	786.44	22.31

CC#N [acetonitrile] + CCCCO
[2]
Details	mass density [kg/m3]	surface tension liquid-gas [mN/m]
x1 = 0.1026	805.36	24.65
x1 = 0.2021	803.18	24.78
x1 = 0.302	800.8	24.94
x1 = 0.5024	795.42	25.52
x1 = 0.7014	789.23	26.53
x1 = 0.8007	785.7	27.25
x1 = 0.8995	782.01	28.14

CC#N [acetonitrile]
[1]
Details	mass density [kg/m3]	surface tension liquid-gas [mN/m]
–	778.3	29.25

CCCO [propan-1-ol]
[1]
Details	mass density [kg/m3]	surface tension liquid-gas [mN/m]
–	801.3	23.78

CC#N [acetonitrile] + CCO
[2]
Details	mass density [kg/m3]	surface tension liquid-gas [mN/m]
x1 = 0.0999	786.57	22.81
x1 = 0.2007	785.99	23.3
x1 = 0.3039	785.05	23.85
x1 = 0.5001	783.08	25.06
x1 = 0.6994	780.89	26.51
x1 = 0.8013	779.8	27.36
x1 = 0.8996	778.91	28.26

CC#N [acetonitrile] + CCCO
[2]
Details	mass density [kg/m3]	surface tension liquid-gas [mN/m]
x1 = 0.1004	799.54	24.02
x1 = 0.2018	797.63	24.23
x1 = 0.3013	795.62	24.52
x1 = 0.5004	791.05	25.32
x1 = 0.7003	785.97	26.5
x1 = 0.8002	783.29	27.27
x1 = 0.8997	780.68	28.19

CCCCCO [pentan-1-ol] + CC#N
[2]
Details	mass density [kg/m3]	surface tension liquid-gas [mN/m]
x2 = 0.1003	812.2	25.49
x2 = 0.2031	809.06	25.54
x2 = 0.3014	806.03	25.57
x2 = 0.5003	799.64	25.82
x2 = 0.7	792.42	26.64
x2 = 0.8001	788.11	27.29
x2 = 0.8993	783.38	28.11

CCCCCO [pentan-1-ol]
[1]
Details	mass density [kg/m3]	surface tension liquid-gas [mN/m]
–	815.11	25.46
